Measurements from ChEMBL document CHEMBL3431459, “Roche carnitine palmitoyltransferase modulator screening data (supplementary data associated with the publication CHEMBL2216752)”.
Converted amounts (≈) assume the structure as drawn.

How the values were obtained:
[1] = SUPPLEMENTARY: Lipophilicity (log D) Determination by high-throughput shake-flask; type: physicochemical; conditions: octanol/water
[2] = molecular target: T1, Carnitine O-palmitoyltransferase 2, mitochondrial (Homo sapiens, UniProt P23786); assay: (§1) SUPPLEMENTARY: Inhibition of Carnitine palmitoyltransferase 2
T1 sequence (P23786 whole entry): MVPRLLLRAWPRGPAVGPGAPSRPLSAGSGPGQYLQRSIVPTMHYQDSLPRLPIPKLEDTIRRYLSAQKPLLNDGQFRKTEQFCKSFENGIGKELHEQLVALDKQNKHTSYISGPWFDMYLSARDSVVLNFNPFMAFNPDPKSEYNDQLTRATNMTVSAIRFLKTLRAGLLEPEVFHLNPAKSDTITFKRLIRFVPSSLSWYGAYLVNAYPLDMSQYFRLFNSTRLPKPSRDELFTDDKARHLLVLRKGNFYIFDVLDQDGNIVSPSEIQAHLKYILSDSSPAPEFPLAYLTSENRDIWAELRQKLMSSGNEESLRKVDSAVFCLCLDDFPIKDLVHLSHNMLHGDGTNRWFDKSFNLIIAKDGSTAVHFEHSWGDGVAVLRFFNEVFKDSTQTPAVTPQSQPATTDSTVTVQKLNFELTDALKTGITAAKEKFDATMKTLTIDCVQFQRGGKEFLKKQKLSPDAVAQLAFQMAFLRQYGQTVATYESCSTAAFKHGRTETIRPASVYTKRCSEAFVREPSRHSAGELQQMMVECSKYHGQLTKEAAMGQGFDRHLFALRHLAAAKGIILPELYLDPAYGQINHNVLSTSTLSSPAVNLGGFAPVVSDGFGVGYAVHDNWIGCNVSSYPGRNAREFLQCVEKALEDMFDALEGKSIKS

[3] = molecular target: T2, Carnitine O-palmitoyltransferase 2, mitochondrial (Rattus norvegicus, UniProt P18886); assay: as §1
T2 sequence (P18886 whole entry): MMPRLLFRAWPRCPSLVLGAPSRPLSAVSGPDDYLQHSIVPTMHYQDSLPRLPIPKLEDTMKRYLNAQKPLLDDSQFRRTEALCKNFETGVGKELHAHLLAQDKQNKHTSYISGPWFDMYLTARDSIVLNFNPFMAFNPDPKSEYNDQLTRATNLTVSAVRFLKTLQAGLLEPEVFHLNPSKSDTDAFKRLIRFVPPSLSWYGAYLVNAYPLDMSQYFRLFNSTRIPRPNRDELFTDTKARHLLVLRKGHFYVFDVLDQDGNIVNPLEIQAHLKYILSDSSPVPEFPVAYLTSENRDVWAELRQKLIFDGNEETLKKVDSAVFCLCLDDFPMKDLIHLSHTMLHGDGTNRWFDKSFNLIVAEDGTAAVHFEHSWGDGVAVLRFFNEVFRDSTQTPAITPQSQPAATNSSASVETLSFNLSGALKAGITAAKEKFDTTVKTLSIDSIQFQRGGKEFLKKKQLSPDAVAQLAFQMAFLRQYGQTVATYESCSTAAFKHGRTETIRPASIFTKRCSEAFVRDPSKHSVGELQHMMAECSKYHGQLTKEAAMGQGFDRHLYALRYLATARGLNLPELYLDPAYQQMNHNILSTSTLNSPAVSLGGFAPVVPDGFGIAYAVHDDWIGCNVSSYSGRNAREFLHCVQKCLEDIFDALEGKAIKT

[4] = molecular target: T3, Carnitine O-palmitoyltransferase 1, liver isoform (Rattus norvegicus, UniProt P32198); assay: (§2) SUPPLEMENTARY: Inhibition of Carnitine palmitoyltransferase 1, liver isoform
T3 sequence (P32198 whole entry): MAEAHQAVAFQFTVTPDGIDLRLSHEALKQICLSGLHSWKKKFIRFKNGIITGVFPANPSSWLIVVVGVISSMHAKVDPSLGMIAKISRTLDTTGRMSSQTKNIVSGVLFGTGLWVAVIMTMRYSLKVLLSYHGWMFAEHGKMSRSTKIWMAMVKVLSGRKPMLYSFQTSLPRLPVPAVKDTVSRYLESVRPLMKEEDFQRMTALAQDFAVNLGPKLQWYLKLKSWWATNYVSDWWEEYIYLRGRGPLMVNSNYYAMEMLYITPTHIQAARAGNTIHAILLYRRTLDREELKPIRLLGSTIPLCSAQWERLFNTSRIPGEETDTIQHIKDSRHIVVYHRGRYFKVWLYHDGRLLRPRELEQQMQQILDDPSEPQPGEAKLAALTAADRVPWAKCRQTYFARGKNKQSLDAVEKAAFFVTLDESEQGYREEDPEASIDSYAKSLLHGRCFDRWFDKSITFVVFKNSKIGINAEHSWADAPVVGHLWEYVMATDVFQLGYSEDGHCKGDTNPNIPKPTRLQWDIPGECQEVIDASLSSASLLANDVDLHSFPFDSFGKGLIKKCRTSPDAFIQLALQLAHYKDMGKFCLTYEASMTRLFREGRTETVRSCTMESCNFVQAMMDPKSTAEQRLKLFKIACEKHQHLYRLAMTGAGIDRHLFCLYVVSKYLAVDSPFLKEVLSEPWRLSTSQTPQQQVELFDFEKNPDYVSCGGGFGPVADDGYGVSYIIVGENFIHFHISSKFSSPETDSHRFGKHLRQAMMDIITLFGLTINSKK

[5] = molecular target: T4, Carnitine O-palmitoyltransferase 1, muscle isoform (Homo sapiens, UniProt Q92523); assay: SUPPLEMENTARY: Inhibition of Carnitine palmitoyltransferase 1, muscle isoform; set-up: species or system Muscle tissue
T4 sequence (Q92523 whole entry): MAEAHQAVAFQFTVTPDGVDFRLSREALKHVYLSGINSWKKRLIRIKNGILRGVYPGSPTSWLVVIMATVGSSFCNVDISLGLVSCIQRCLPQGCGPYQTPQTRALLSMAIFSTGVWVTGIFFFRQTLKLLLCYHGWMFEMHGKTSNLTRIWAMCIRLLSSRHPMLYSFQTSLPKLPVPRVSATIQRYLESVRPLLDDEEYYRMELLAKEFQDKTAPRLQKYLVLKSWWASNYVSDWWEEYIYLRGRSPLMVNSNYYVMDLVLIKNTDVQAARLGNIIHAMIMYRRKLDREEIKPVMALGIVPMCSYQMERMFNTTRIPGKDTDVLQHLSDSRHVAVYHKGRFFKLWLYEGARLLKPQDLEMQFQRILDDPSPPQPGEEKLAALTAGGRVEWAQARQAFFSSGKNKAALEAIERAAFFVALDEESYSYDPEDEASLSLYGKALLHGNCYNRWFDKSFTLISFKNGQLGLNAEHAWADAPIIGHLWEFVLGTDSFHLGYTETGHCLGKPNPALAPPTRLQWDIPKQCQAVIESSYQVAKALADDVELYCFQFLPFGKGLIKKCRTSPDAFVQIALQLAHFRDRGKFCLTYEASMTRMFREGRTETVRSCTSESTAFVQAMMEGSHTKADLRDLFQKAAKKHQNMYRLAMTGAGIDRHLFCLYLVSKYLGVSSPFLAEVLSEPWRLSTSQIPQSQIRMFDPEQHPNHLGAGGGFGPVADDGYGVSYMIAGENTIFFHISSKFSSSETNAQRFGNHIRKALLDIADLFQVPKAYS

[6] = SUPPLEMENTARY: PAMPA permeability assay; type: physicochemical; conditions: read-out: Permeability
[7] = SUPPLEMENTARY: Lyophilisation Solubility Assay (LYSA); type: physicochemical; conditions: read-out: Kinetic_solubility
[8] = molecular target: T5, Carnitine O-palmitoyltransferase 1, liver isoform (Homo sapiens, UniProt P50416); assay: as §2
T5 sequence (P50416 whole entry): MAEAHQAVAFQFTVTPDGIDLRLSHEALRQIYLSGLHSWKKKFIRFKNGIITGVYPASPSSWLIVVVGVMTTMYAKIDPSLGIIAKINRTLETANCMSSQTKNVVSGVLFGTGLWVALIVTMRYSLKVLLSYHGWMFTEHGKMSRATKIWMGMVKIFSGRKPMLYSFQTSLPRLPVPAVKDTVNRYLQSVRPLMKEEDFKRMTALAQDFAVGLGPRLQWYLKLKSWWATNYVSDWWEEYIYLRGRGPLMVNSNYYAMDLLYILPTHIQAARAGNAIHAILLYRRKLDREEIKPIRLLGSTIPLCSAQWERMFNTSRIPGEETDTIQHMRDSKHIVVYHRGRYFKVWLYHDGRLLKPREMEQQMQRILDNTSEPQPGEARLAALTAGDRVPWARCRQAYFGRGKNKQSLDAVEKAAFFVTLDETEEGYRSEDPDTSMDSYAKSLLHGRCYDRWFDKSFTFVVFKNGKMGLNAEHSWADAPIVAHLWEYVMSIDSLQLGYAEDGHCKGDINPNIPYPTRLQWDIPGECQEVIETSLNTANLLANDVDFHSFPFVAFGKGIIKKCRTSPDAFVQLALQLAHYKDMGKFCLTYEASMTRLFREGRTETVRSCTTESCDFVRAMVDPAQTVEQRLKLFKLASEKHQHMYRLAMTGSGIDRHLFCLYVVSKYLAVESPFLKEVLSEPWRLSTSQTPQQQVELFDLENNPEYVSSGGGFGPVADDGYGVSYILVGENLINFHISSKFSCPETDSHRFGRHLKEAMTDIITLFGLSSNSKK

logD [1] | IC50 [2] [µM] | IC50 [3] [µM] | IC50 [4] [µM] | IC50 [5] [µM] | Papp [6] [nm/s] | solubility kinetic [7] [mg/mL] | IC50 [8] [µM] | Compound
0.35 | 3.45 | 20.5 | 0.0947 | 2.08 | 19.2 | 0.03 (≈ 59.2 µM) |  | COc1ccc(Cl)cc1S(=O)(=O)N1COc2ccc(C(=O)Nc3ccc(C(=O)O)c(F)c3)cc21
3.37 |  |  | 0.128 | > 100 | 90.4 | 0.024 (≈ 63.2 µM) |  | O=C(COc1ccccc1)N1CCCC[C@@H]1c1nc(-c2ccccn2)cs1
0.35 | > 100 | > 100 | 0.0145 | 0.674 |  | 0.025 (≈ 51.6 µM) | 0.0186 | COc1ccc(Cl)cc1S(=O)(=O)Nc1cccc(C(=O)Nc2ccc(-c3nnn[nH]3)cc2)c1
> 3 | > 100 | > 100 | 0.985 | > 100 | 13.1 | < 0.001 |  | O=C(COc1ccccc1)N1CCCC[C@@H]1c1csc(-c2ccc(C(F)(F)F)nc2)n1
-0.86 | > 100 | > 100 | 0.225 | 0.259 |  | 0.456 (≈ 831 µM) | 0.22 | COc1ccc(Cl)cc1S(=O)(=O)N1CC[S+]([O-])c2ccc(C(=O)Nc3ccc(CC(=O)O)cc3)cc21 (stereo not drawn)
0.31 | > 100 | > 100 | 0.0244 | 39.3 |  | 0.374 (≈ 748 µM) | 0.0384 | COc1ccc(Cl)cc1S(=O)(=O)c1nn(CC(=O)O)c2ccc(C(=O)Nc3ccccc3)cc12
-0.23 | > 100 | > 100 | 0.0072 | 11.1 |  | > 0.557 | 0.0361 | COc1ccc(Cl)cc1S(=O)(=O)c1cn(CC(=O)O)c2ccc(C(=O)Nc3ccccc3)cc12
> 3 | > 100 | > 100 | 0.0252 | > 100 |  | < 0.001 | 0.188 | COc1ccc(Cl)cc1S(=O)(=O)c1cn(CSC)c2ccc(C(=O)Nc3ccccc3)cc12
> 3 | > 100 | > 100 | 0.061 | > 100 |  | < 0.001 | 0.111 | COc1ccc(Cl)cc1S(=O)(=O)c1cn(CS(C)(=O)=O)c2ccc(C(=O)Nc3ccccc3)cc12
1.79 | > 100 | > 100 |  | 0.145 | 7.7 |  | 0.55 | COc1ccc(Cl)cc1S(=O)(=O)N1CCCc2ccc(Oc3ccc(CC(=O)O)cc3)cc21
> 3 | > 100 | > 100 | 0.0292 | > 100 |  | < 0.001 | 0.0845 | COc1ccc(Cl)cc1S(=O)(=O)c1nn(C)c2ccc(C(=O)Nc3ccccc3)cc12
0.17 | > 100 | > 100 | 0.0234 | 0.235 |  | 0.041 (≈ 82.2 µM) | 0.0219 | COc1ccc(Cl)cc1S(=O)(=O)c1c[nH]c2ccc(C(=O)Nc3ccc(CC(=O)O)cc3)cc12
-0.02 | > 100 | > 100 | 0.0189 | 0.202 |  | 0.066 (≈ 130 µM) | 0.0393 | COc1ccc(Cl)cc1S(=O)(=O)c1c[nH]c2ccc(C(=O)Nc3nc(CC(=O)O)cs3)cc12
0.84 | 1.96 | 5.12 | 0.0203 | 0.528 |  | 0.023 (≈ 47.4 µM) | 0.0175 | COc1ccc(Cl)cc1S(=O)(=O)c1c[nH]c2ccc(C(=O)Nc3ccc(C(=O)O)cc3)cc12
2.84 | 11.5 | 22.5 | 0.0695 | 4.07 |  | 0.011 (≈ 21.6 µM) | 0.102 | O=C(Nc1ccc(C(=O)O)c(F)c1)c1ccc2c(c1)N(S(=O)(=O)c1ccc(Cl)c(Cl)c1)CC2
> 3 | 6.23 | 56.4 | 0.129 | 77.3 |  | < 0.001 |  | O=C(COc1ccccc1)N1CCCC[C@@H]1c1csc(-c2n[nH]c3ccccc23)n1
